# Results taken from PubChem BioAssay (NCI).
#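 Method: 48-hour compound exposure of cells in 96-well plates, five concentrations, linear interpolation of endpoints. Here, GI50 denotes the concentration required for 50% inhibition of growth. TGI: concentration producing complete growth inhibition.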
# How the values were obtained:
# Assay in all cases: inhibition of tumour cell growth, NCI panel, 48 h
# 786-0 renal = tested on: 786-0 renal
# A498 renal = tested on: A498 renal
# A549 NSCLC = tested on: A549 NSCLC
# ACHN renal = tested on: ACHN renal
# BT-549 breast = tested on: BT-549 breast
# CAKI-1 renal = tested on: CAKI-1 renal
# COLO 205 colon = tested on: COLO 205 colon
# DU-145 prostate = tested on: DU-145 prostate
# EKVX NSCLC = tested on: EKVX NSCLC
# HCC-2998 colon = tested on: HCC-2998 colon
# HCT-116 colon = tested on: HCT-116 colon
# HCT-15 colon = tested on: HCT-15 colon
# HL-60(TB) leukemia = tested on: HL-60(TB) leukemia
# HOP-62 NSCLC = tested on: HOP-62 NSCLC
# HOP-92 NSCLC = tested on: HOP-92 NSCLC
# HS 578T breast = tested on: HS 578T breast
# HT29 colon = tested on: HT29 colon
# IGROV1 ovarian = tested on: IGROV1 ovarian
# K-562 leukemia = tested on: K-562 leukemia
# KM12 colon = tested on: KM12 colon
# LOX IMVI melanoma = tested on: LOX IMVI melanoma
# M14 melanoma = tested on: M14 melanoma
# MALME-3M melanoma = tested on: MALME-3M melanoma
# MCF7 breast = tested on: MCF7 breast
# MDA-MB-231 breast = tested on: MDA-MB-231 breast
# MDA-MB-435 = tested on: MDA-MB-435
# MOLT-4 leukemia = tested on: MOLT-4 leukemia
# NCI-H226 lung = tested on: NCI-H226 lung
# NCI-H23 lung = tested on: NCI-H23 lung
# NCI-H460 lung = tested on: NCI-H460 lung
# NCI-H522 lung = tested on: NCI-H522 lung
# NCI/ADR-RES ovarian = tested on: NCI/ADR-RES ovarian
# OVCAR-3 ovarian = tested on: OVCAR-3 ovarian
# OVCAR-4 ovarian = tested on: OVCAR-4 ovarian
# OVCAR-5 ovarian = tested on: OVCAR-5 ovarian
# OVCAR-8 ovarian = tested on: OVCAR-8 ovarian
# PC-3 prostate = tested on: PC-3 prostate
# RPMI-8226 leukemia = tested on: RPMI-8226 leukemia
# RXF 393 renal = tested on: RXF 393 renal
# SF-268 CNS = tested on: SF-268 CNS
# SF-295 CNS = tested on: SF-295 CNS
# SF-539 CNS = tested on: SF-539 CNS
# SK-MEL-2 melanoma = tested on: SK-MEL-2 melanoma
# SK-MEL-28 melanoma = tested on: SK-MEL-28 melanoma
# SK-MEL-5 melanoma = tested on: SK-MEL-5 melanoma
# SK-OV-3 ovarian = tested on: SK-OV-3 ovarian
# SN12C renal = tested on: SN12C renal
# SNB-19 CNS = tested on: SNB-19 CNS
# SNB-75 CNS = tested on: SNB-75 CNS
# SR leukemia = tested on: SR leukemia
# SW-620 colon = tested on: SW-620 colon
# T-47D breast = tested on: T-47D breast
# TK-10 renal = tested on: TK-10 renal
# U251 CNS = tested on: U251 CNS
# UACC-257 melanoma = tested on: UACC-257 melanoma
# UACC-62 melanoma = tested on: UACC-62 melanoma
# UO-31 renal = tested on: UO-31 renal
smiles,measurement,setting,value
Oc1c(Br)cc(Br)c2ccc(Cn3cc(-c4ccc(C(F)(F)F)cc4)nn3)nc12,GI50,786-0 renal,1.92 µM
same,TGI,786-0 renal,4.54 µM
same,GI50,A498 renal,3.36 µM
same,TGI,A498 renal,13.8 µM
same,GI50,A549 NSCLC,16.6 µM
same,TGI,A549 NSCLC,34.3 µM
same,GI50,ACHN renal,1.38 µM
same,TGI,ACHN renal,2.7 µM
same,GI50,BT-549 breast,2.16 µM
same,TGI,BT-549 breast,5.98 µM
same,GI50,CAKI-1 renal,1.27 µM
same,TGI,CAKI-1 renal,2.69 µM
same,GI50,COLO 205 colon,1.28 µM
same,TGI,COLO 205 colon,2.93 µM
same,GI50,DU-145 prostate,1.67 µM
same,TGI,DU-145 prostate,3.19 µM
same,GI50,EKVX NSCLC,7.43 µM
same,TGI,EKVX NSCLC,20.9 µM
same,GI50,HCC-2998 colon,8.87 µM
same,TGI,HCC-2998 colon,22.6 µM
same,GI50,HCT-116 colon,0.586 µM
same,TGI,HCT-116 colon,2.05 µM
same,GI50,HCT-15 colon,1.56 µM
same,TGI,HCT-15 colon,3.46 µM
same,GI50,HL-60(TB) leukemia,0.674 µM
same,TGI,HL-60(TB) leukemia,3.06 µM
same,GI50,HOP-62 NSCLC,15.6 µM
same,TGI,HOP-62 NSCLC,30.8 µM
same,GI50,HOP-92 NSCLC,1.52 µM
same,TGI,HOP-92 NSCLC,4.4 µM
same,GI50,HS 578T breast,3.03 µM
same,TGI,HS 578T breast,10.3 µM
same,GI50,HT29 colon,1.92 µM
same,TGI,HT29 colon,4.55 µM
same,GI50,IGROV1 ovarian,1.49 µM
same,TGI,IGROV1 ovarian,3.25 µM
same,GI50,K-562 leukemia,0.41 µM
same,TGI,K-562 leukemia,11.8 µM
same,GI50,KM12 colon,8.84 µM
same,TGI,KM12 colon,21.4 µM
same,GI50,LOX IMVI melanoma,0.379 µM
same,TGI,LOX IMVI melanoma,1.52 µM
same,GI50,M14 melanoma,1.81 µM
same,TGI,M14 melanoma,4.44 µM
same,GI50,MALME-3M melanoma,1.65 µM
same,TGI,MALME-3M melanoma,3.67 µM
same,GI50,MCF7 breast,0.532 µM
same,TGI,MCF7 breast,2.36 µM
same,GI50,MDA-MB-231 breast,2.06 µM
same,TGI,MDA-MB-231 breast,5.02 µM
same,GI50,MDA-MB-435,1.85 µM
same,TGI,MDA-MB-435,4.39 µM
same,GI50,MOLT-4 leukemia,1.01 µM
same,TGI,MOLT-4 leukemia,5.76 µM
same,GI50,NCI-H226 lung,4.46 µM
same,TGI,NCI-H226 lung,19.7 µM
same,GI50,NCI-H23 lung,2.31 µM
same,TGI,NCI-H23 lung,6.18 µM
same,GI50,NCI-H460 lung,19 µM
same,TGI,NCI-H460 lung,37.3 µM
same,GI50,NCI-H522 lung,1.08 µM
same,TGI,NCI-H522 lung,3.01 µM
same,GI50,NCI/ADR-RES ovarian,21.1 µM
same,TGI,NCI/ADR-RES ovarian,71.7 µM
same,GI50,OVCAR-3 ovarian,1.42 µM
same,TGI,OVCAR-3 ovarian,2.8 µM
same,GI50,OVCAR-4 ovarian,1.45 µM
same,TGI,OVCAR-4 ovarian,3.11 µM
same,GI50,OVCAR-5 ovarian,3.45 µM
same,TGI,OVCAR-5 ovarian,12.9 µM
same,GI50,OVCAR-8 ovarian,2.62 µM
same,TGI,OVCAR-8 ovarian,7.76 µM
same,GI50,PC-3 prostate,2.9 µM
same,TGI,PC-3 prostate,12.4 µM
same,GI50,RPMI-8226 leukemia,1.59 µM
same,TGI,RPMI-8226 leukemia,5.6 µM
same,GI50,RXF 393 renal,0.662 µM
same,TGI,RXF 393 renal,2.17 µM
same,GI50,SF-268 CNS,4.7 µM
same,TGI,SF-268 CNS,17.9 µM
same,GI50,SF-295 CNS,17.2 µM
same,TGI,SF-295 CNS,31.2 µM
same,GI50,SF-539 CNS,1.59 µM
same,TGI,SF-539 CNS,3.01 µM
same,GI50,SK-MEL-2 melanoma,2.73 µM
same,TGI,SK-MEL-2 melanoma,9.67 µM
same,GI50,SK-MEL-28 melanoma,1.7 µM
same,TGI,SK-MEL-28 melanoma,3.44 µM
same,GI50,SK-MEL-5 melanoma,3.16 µM
same,TGI,SK-MEL-5 melanoma,11.7 µM
same,GI50,SK-OV-3 ovarian,17.8 µM
same,TGI,SK-OV-3 ovarian,32.1 µM
same,GI50,SN12C renal,3.53 µM
same,TGI,SN12C renal,14.4 µM
same,GI50,SNB-19 CNS,11.1 µM
same,TGI,SNB-19 CNS,24.5 µM
same,GI50,SNB-75 CNS,1.49 µM
same,TGI,SNB-75 CNS,8.04 µM
same,GI50,SR leukemia,0.794 µM
same,TGI,SR leukemia,5.86 µM
same,GI50,SW-620 colon,0.548 µM
same,TGI,SW-620 colon,2.13 µM
same,GI50,T-47D breast,1.72 µM
same,TGI,T-47D breast,5.84 µM
same,GI50,TK-10 renal,1.82 µM
same,TGI,TK-10 renal,3.79 µM
same,GI50,U251 CNS,4.42 µM
same,TGI,U251 CNS,16.5 µM
same,GI50,UACC-257 melanoma,1.31 µM
same,TGI,UACC-257 melanoma,3.19 µM
same,GI50,UACC-62 melanoma,3.4 µM
same,TGI,UACC-62 melanoma,14.4 µM
same,GI50,UO-31 renal,1.68 µM
same,TGI,UO-31 renal,5.03 µM
